Experimental findings from patent publication US20220144853A1, “IMIDAZOLINE DERIVATIVES AS CXCR4 MODULATORS” (Université de Paris, priority 2019, published 2022) are described below.

Series [1] has as its system IL-1β, IFN-γ, TNF-α, IL-10, IL-12p70, IL-18 and IL-23. The series is described as follows: Cytokine production by R848-activated PBMCs, LEGENDplex: statements on all inhibited cytokines together. The format is cell-based. Conditions: Homo sapiens, PBMC, PBMCs from two healthy donors, read-out: IC50 on the expression of cytokines, on all such cytokines. As for the experimental part: (§1) 2) The PBMCs used herein were prepared as described in part A “immune cells preparation”, section 2) above. PBMCs were seeded at 4.10^6/mL. […] Cells were then stimulated with the TLR7/8 agonist resiquimod—R848 (Sigma-Aldrich, MO, USA) at 5 μg/mL.
(§2) Cytokine expression levels were assessed using LEGENDplex Human inflammation panel 1 Kit (BioLegend, California, USA), which is a bead-based multiplex assay, using fluorescence-encoded beads. […] First, supernatants of R848-stimulated PBMCs were harvested after 24 h of stimulation and frozen at −20° C. for storage. Supernatants were dispensed into a 96-well V-bottom plate. Protocol pursued as per manufacturer recommendations (Manual for BioLegend LEGENDplex, Multi-Analyte Flow Assay Kit, Human Inflammation Panel 1, version 750000393_R01).

For series [2], the system named is IFN production by activated PBMCs. The experiment in a line: IFN production by R848-activated PBMCs from healthy donors, twINNE reporter cell line. The format is cell-based, human. The conditions noted are these: Homo sapiens, PBMC, means of two results over 2 healthy donors, R848 5 μg/mL, IT1t: mean over all experiments, read-out: IC50 of anti-inflammatory activity (IFN production). The method in brief: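 Human PBMCs (4.10^6/mL, RPMI/10% FBS, 37° C) stimulated with R848 at 5 μg/mL; supernatants collected after 24 h. Functional IFN measured on twINNE cells (ISRE-driven luciferase reporter) after 24 h culture by bioluminescence; IC50 from variable-slope dose-response fits.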

The test system of a further series is IL-12p70. The experiment in a line: Cytokine production by R848-activated PBMCs, LEGENDplex Human Inflammation panel 1: IL-12p70. The format is cell-based. The conditions noted are these: Homo sapiens, PBMC, PBMCs from 2 healthy donors, R848 overnight. As for the experimental part:
as §1, §2

Another series has as its system IL-1β. The experiment in a line: Cytokine production by R848-activated PBMCs, LEGENDplex Human Inflammation panel 1: IL-1β. The format is cell-based. The conditions noted are these: Homo sapiens, PBMC, PBMCs from 2 healthy donors, R848 overnight, read-out: IC50 (μM) 1L-1β. As for the experimental part: as §1, §2
Another series has as its system IL-18. The series is described as follows: Cytokine production by R848-activated PBMCs, LEGENDplex Human Inflammation panel 1: IL-18. The format is cell-based. Conditions: Homo sapiens, PBMC, PBMCs from 2 healthy donors, R848 overnight. On the procedure: as §1, §2
For a further series, the system named is IL-10. The series is described as follows: Cytokine production by R848-activated PBMCs, LEGENDplex Human Inflammation panel 1: IL-10. The conditions noted are these: Homo sapiens, PBMC, PBMCs from 2 healthy donors, R848 overnight. The format is cell-based. On the procedure:
as §1, §2

The test system of a further series is IFN-γ. The series is described as follows: Cytokine production by R848-activated PBMCs, LEGENDplex Human Inflammation panel 1: IFN-γ. The conditions noted are these: Homo sapiens, PBMC, PBMCs from 2 healthy donors, R848 overnight. The format is cell-based. On the procedure: as §1, §2
In a further series the test system is IL-23. The experiment in a line: Cytokine production by R848-activated PBMCs, LEGENDplex Human Inflammation panel 1: IL-23. The format is cell-based. The conditions noted are these: Homo sapiens, PBMC, PBMCs from 2 healthy donors, R848 overnight. On the procedure: as §1, §2
A further series concerns TNF-α. The series is described as follows: Cytokine production by R848-activated PBMCs, LEGENDplex Human Inflammation panel 1: TNF-α. The format is cell-based. The conditions noted are these: Homo sapiens, PBMC, PBMCs from 2 healthy donors, R848 overnight. As for the experimental part: as §1, §2

Where a name gives a salt, the structure may show the parent alone.

For orientation: IC50 means the point on the concentration scale where inhibition reaches its midpoint. `CC1(C)CN2C(CSC3=NCC(Cc4ccccc4)N3)=CSC2=N1` (stereo not drawn) [Example 17, 3-(((5-benzyl-4,5-dihydro-1H-imidazol-2-yl)thio)methyl)-6,6-dimethyl-5,6-dihydroimidazo[2,1-b]thiazole dihydrochloride]: the IC50 in series [1] was at most 20 µM; in series [2], at most 10 µM; with IL-12p70, 0.34 µM; with IL-1β, 3.6 µM; with IL-18, 0.54 µM; with IL-10, 2.7 µM. The IC50 turned out to be 3.2 µM in the series with IFN-γ, 2.2 µM in the series with IL-23 and 4.6 µM with TNF-α.

Regarding `CC1(C)CN=C(SCC2=CSC3=NC(Cc4ccccc4)CN23)N1` (stereo not drawn) [Example 18, 6-benzyl-3-(((5,5-dimethyl-4,5-dihydro-1H-imidazol-2-yl)thio)methyl)-5,6-dihydroimidazo[2,1-b]thiazole dihydrochloride], the IC50 in series [1] is at most 20 µM; in series [2] it was 10 to 31 µM; with IL-12p70 it was 3.6 µM; in the series on IL-1β, 5.6 µM; in the series on IL-18 it was 0.2 µM; in the series on IL-10 it was 3.7 µM. Moreover, the IC50 with IFN-γ turned out to be 6.1 µM; in the series with IL-23, 2.9 µM; in the series with TNF-α it was 7.9 µM.

As to `CN1CCN=C1SCC1=CSC2=NC3CCCCC3N12` (racemic) [Example 63, trans-3-(((1-methyl-4,5-dihydro-1H-imidazol-2-yl)thio)methyl)-4a,5,6,7,8,8a-hexahydrobenzo[4,5]imidazo[2,1-b]thiazole dihydrochloride], the IC50 in series [2] is at most 10 µM; with IL-12p70, 1.2 µM; in the series on IL-1β, 2.8 µM; with IL-18 it was 1.3 µM; with IFN-γ, 2.7 µM; in the series with IL-23, 0.69 µM.

The term melting point denotes the temperature of the solid-liquid transition. With `CC1(C)CN2C(CCCSC3=NCC(C)(C)N3)=CSC2=N1.Cl.Cl` [Example 64, 3-(3-((5,5-dimethyl-4,5-dihydro-1H-imidazol-2-yl)thio)propyl)-6,6-dimethyl-5,6-dihydroimidazo[2,1-b]thiazole dihydrochloride], the melting point lay in the range of 85 to 95 °C. In addition, the IC50 in series [2] was at least 31 µM.

Regarding `CC1(C)CN2C(CSC3=N[C@@H]4CCCC[C@H]4N3)=CSC2=N1` [Example 3, 3-((((3aR,7aR)-3a,4,5,6,7a-hexahydro-1H-benzo[d]imidazol-2-yl)thio)methyl)-6,6-dimethyl-5,6-dihydroimidazo[2,1-b]thiazole dihydrochloride], the IC50 in [1] is at most 20 µM; in [2], at most 10 µM; in the series on IL-12p70, 2.6 µM; in the series with IL-1β, 12 µM; with IL-18, 6.9 µM; in the series with IL-10, 11 µM. Also, the IC50 in the series with IFN-γ amounted to 7.2 µM; in the series with IL-23, 1.7 µM; in the series with TNF-α, 11 µM.

Consider `CC1(C)CN=C(SCC2=CSC3=N[C@H]4CCCC[C@@H]4N23)N1` (racemic) [Example 7, trans-3-(((4,4-dimethyl-4,5-dihydro-1H-imidazol-2-yl)thio)methyl)-4a,5,6,7,8,8a-hexahydrobenzo[4,5]imidazo[2,1-b]thiazole dihydrochloride], for which the IC50 in [1] was at most 20 µM; in series [2] it was at most 10 µM; in the series with IL-12p70, 6.7 µM; with IL-1β, 9.9 µM; in the series with IL-18, 4.2 µM; in the series on IL-10 it was 5.6 µM. In addition, the IC50 in the series on IFN-γ was 9.8 µM; with IL-23, 2.9 µM; in the series with TNF-α, 20 µM.

`C1=C(CSC2=N[C@@H]3CCCC[C@H]3N2)N2CC(Cc3ccccc3)N=C2S1` (stereo partly drawn) (as salt: hydrochloride) [Example 61, 6-benzyl-3-((((3aR,7aR)-3a,4,5,6,7,7a-hexahydro-1H-benzo[d]imidazol-2-yl)thio)methyl)-5,6-dihydroimidazo[2,1-b]thiazole dihydrochloride] displayed a melting point of 125 to 130 °C.

The molecule `CC1(C)CN2C(CSC3=N[C@H]4CCCC[C@@H]4N3)=CSC2=N1` (as salt: hydrochloride) [Example 4, 3-((((3aS,7aS)-3a,4,5,6,7,7a-hexahydro-1H-benzo[d]imidazol-2-yl)thio)methyl)-6,6-dimethyl-5,6-dihydroimidazo[2,1-b]thiazole dihydrochloride] displayed a melting point of 167 to 175 °C.

`CCCCC1CN=C(SCC2=CSC3=NC(Cc4ccccc4)CN23)N1` (stereo not drawn) (as salt: hydrochloride) [Example 51, 6-benzyl-3-(((5-butyl-4,5-dihydro-1H-imidazol-2-yl)thio)methyl)-5,6-dihydroinidazo[2,1-b]thiazole dihydrochloride] came in with a melting point of 150 to 154 °C.

The molecule `CC1(C)CN=C(SCC2=CSC3=NC(c4ccccc4)CN23)N1` (stereo not drawn) (as salt: hydrochloride) [Example 50, 3-(((5,5-dimethyl-4,5-dihydro-1H-imidazol-2-yl)thio)methyl)-6-phenyl-5,6-dihydroimidazo[2,1-b]thiazole dihydrochloride] yielded a melting point of 245 to 247 °C.

Molecule `CCCCC1CN=C(SCC2=CSC3=NC(C)(C)CN23)N1` (stereo not drawn) (as salt: hydrochloride) [Example 13, 3-(((5-butyl-4,5-dihydro-1H-imidazol-2-yl)thio)methyl)-6,6-dimethyl-5,6-dihydroimidazo[2,1-b]thiazole dihydrochloride] gave a melting point of 95 to 104 °C.

`CC1(C)CN=C2SC=C(CSC3=NCC(C)(C)N3)N2C1` (as salt: hydrochloride) [Example 34, 3-(((5,5-dimethyl-4,5-dihydro-1H-imidazol-2-yl)thio)methyl)-6,6-dimethyl-6,7-dihydro-5H-thiazolo[3,2-a]pyrimidine dihydrochloride]: the melting point is 169 to 175 °C.

As to `CC1(C)CN2C(=N1)SC(I)=C2CSC1=NCC(C)(C)N1` (as salt: hydrochloride) [Example 66, 3-(((5,5-dimethyl-4,5-dihydro-1H-imidazol-2-yl)thio)methyl)-2-iodo-6,6-dimethyl-5,6-dihydroimidazo[2,1-b]thiazole dihydrochloride], the melting point was 169 to 180 °C (dec.).
